Experimental data as given in US6737383B1, “Herbicidal oxadiazolidines” (priority 1999, dated 2004).

How the values were obtained:
[1] = system: corn; assay: Test B pre/postemergence corn; type: in vivo, Zea mays; conditions: for Plant response rating, Corn: scale of 0 to 10 where 0 is no effect and 10 is complete control
Summary of the method: (§1)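 Test chemicals in a non-phytotoxic solvent mixture with surfactant were sprayed preemergence onto planted seeds and postemergence onto plants 2 to 18 cm tall (1- to 4-leaf stage). After twelve to sixteen days in a greenhouse, injury was visually rated against untreated controls from 0 (no effect) to 10 (complete control).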

[2] = system: soybean; assay: Test B pre/postemergence soybean; type: in vivo, Glycine max; conditions: for Plant response rating, Soybean: scale of 0 to 10 where 0 is no effect and 10 is complete control
Summary of the method: as §1

[3] = system: rice; assay: Test B flood test rice; type: in vivo, Oryza sativa
Summary of the method: (§2)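 Read-out is a visual response score from 0 (no effect) to 10 (complete control), assigned by comparison with untreated controls. Treatment was applied at the 2-leaf stage, and plants stayed in the greenhouse for twelve to sixteen days before scoring.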

[4] = system: morningglory; assay: Test B pre/postemergence morningglory; type: in vivo, Ipomoea hederacea; conditions: for Plant response rating, Morningglory: scale of 0 to 10 where 0 is no effect and 10 is complete control
Summary of the method: as §1

[5] = system: purple nutsedge; assay: Test B pre/postemergence purple nutsedge; type: in vivo, Cyperus rotundus; conditions: for Plant response rating, Nutsedge: scale of 0 to 10 where 0 is no effect and 10 is complete control
Summary of the method: as §1

[6] = system: smallflower flatsedge; assay: Test B flood test smallflower flatsedge; type: in vivo, Cyperus difformis
Summary of the method: as §2

[7] = system: pigweed; assay: Test B pre/postemergence pigweed; type: in vivo, Amaranthus retroflexus; conditions: for Plant response rating, Redroot pigweed: scale of 0 to 10 where 0 is no effect and 10 is complete control
Summary of the method: as §1

[8] = system: surinam grass; assay: Test B pre/postemergence surinam grass; type: in vivo, Brachiaria decumbens; conditions: for Plant response rating, B. signalgrass: scale of 0 to 10 where 0 is no effect and 10 is complete control
Summary of the method: as §1

[9] = system: cocklebur; assay: Test B pre/postemergence cocklebur; type: in vivo, Xanthium strumarium; conditions: for Plant response rating, Cocklebur: scale of 0 to 10 where 0 is no effect and 10 is complete control
Summary of the method: as §1

[10] = system: bamyardgrass; assay: Test B flood test barnyardgrass; type: in vivo, Echinochloa crus-galli
Summary of the method: as §2

[11] = system: bedstraw; assay: Test B pre/postemergence bedstraw; type: in vivo, Galium aparine; conditions: Postemergence, Rate 31 g/ha; visual rating, scale 0 to 10 (0 no effect, 10 complete control)
Summary of the method: as §1

[12] = system: rape; assay: Test B pre/postemergence rape; type: in vivo, Brassica napus; conditions: for Plant response rating, Rape: scale of 0 to 10 where 0 is no effect and 10 is complete control
Summary of the method: as §1

[13] = system: blackgrass; assay: Test B pre/postemergence blackgrass; type: in vivo, Alopecurus myosuroides; conditions: for Plant response rating, Blackgrass: scale of 0 to 10 where 0 is no effect and 10 is complete control
Summary of the method: as §1

[14] = system: sugar beet; assay: Test B pre/postemergence sugar beet; type: in vivo, Beta vulgaris; conditions: for Plant response rating, Sugarbeets: scale of 0 to 10 where 0 is no effect and 10 is complete control
Summary of the method: as §1

[15] = system: velvetleaf; assay: Test B pre/postemergence velvetleaf; type: in vivo, Abutilon theophrasti; conditions: for Plant response rating, Velvetleaf: scale of 0 to 10 where 0 is no effect and 10 is complete control
Summary of the method: as §1

[16] = system: wild oat; assay: Test B pre/postemergence wild oat; type: in vivo, Avena fatua; conditions: for Plant response rating, Wild oats: scale of 0 to 10 where 0 is no effect and 10 is complete control
Summary of the method: as §1

[17] = Postemergence, Rate 31 g/ha, visual rating, scale 0 to 10 (0 no effect, 10 complete control)
[18] = Postemergence, Rate 250 g/ha, scale 0 to 10
[19] = Preemergence, Rate 31 g/ha, visual rating, scale 0 to 10 (0 no effect, 10 complete control)
[20] = Preemergence, Rate 250 g/ha, scale 0 to 10, 0 is no effect, 10 is complete control
[21] = Rate 62 g/ha, Postemergence, scale 0 to 10 (0 no effect, 10 complete control)
[22] = Rate 125 g/ha, Postemergence, scale 0 to 10, 0 is no effect, 10 is complete control
[23] = Rate 31 g/ha, Pre-emergence section (flood test species), scale 0 to 10
[24] = Rate 62 g/ha, flood test species, Pre-emergence, visual evaluation after twelve to sixteen days
[25] = Rate 125 g/ha, under heading Pre-emergence, flood test species, visual evaluation after twelve to sixteen days
[26] = Rate 250 g/ha, Pre-emergence (flood test species), scale 0 to 10, 0 is no effect, 10 is complete control

CC(C)N(C(=O)n1oc(=O)n(CC2=NOCCC2)c1=O)c1ccc(Cl)cc1 [Compound 450]
Corn plant response rating [1, 17]: 0
Corn plant response rating [1, 18]: 0
Corn plant response rating [1, 19]: 0
Plant response rating, Corn ([1]; Preemergence, Rate 62 g/ha): 0
Plant response rating, Corn ([1]; Preemergence, Rate 125 g/ha): 0
Corn plant response rating [1, 20]: 0
Corn plant response rating [1, 21]: 0
Corn plant response rating [1, 22]: 0
Soybean plant response rating [2, 17]: 0
Soybean plant response rating [2, 18]: 1
Plant response rating, Soybean ([2]; Preemergence, Rate 62 g/ha): 0
Plant response rating, Soybean ([2]; Preemergence, Rate 125 g/ha): 0
Soybean plant response rating [2, 20]: 3
Soybean plant response rating [2, 21]: 1
Soybean plant response rating [2, 22]: 1
Rice plant response rating [3, 23]: 0
Plant response rating, Rice (0 to 10 scale, 0 is no effect, 10 is complete control) [3, 24]: 0
Rice plant response rating (0 to 10 scale, 0 is no effect, 10 is complete control) [3, 25]: 0
Rice plant response rating [3, 26]: 0
Morningglory plant response rating [4, 17]: 0
Morningglory plant response rating [4, 18]: 1
Plant response rating, Morningglory ([4]; Preemergence, Rate 62 g/ha): 0
Plant response rating, Morningglory ([4]; Preemergence, Rate 125 g/ha): 0
Morningglory plant response rating [4, 20]: 0
Morningglory plant response rating [4, 21]: 0
Morningglory plant response rating [4, 22]: 0
Nutsedge plant response rating [5, 17]: 0
Nutsedge plant response rating [5, 18]: 0
Plant response rating, Nutsedge ([5]; Preemergence, Rate 62 g/ha): 0
Plant response rating, Nutsedge ([5]; Preemergence, Rate 125 g/ha): 0
Nutsedge plant response rating [5, 20]: 0
Nutsedge plant response rating [5, 21]: 0
Nutsedge plant response rating [5, 22]: 0
S. Flatsedge plant response rating [6, 23]: 0
Plant response rating, S. Flatsedge (0 to 10 scale, 0 is no effect, 10 is complete control) [6, 24]: 0
S. Flatsedge plant response rating (0 to 10 scale, 0 is no effect, 10 is complete control) [6, 25]: 0
S. Flatsedge plant response rating [6, 26]: 0
Redroot pigweed plant response rating [7, 17]: 0
Redroot pigweed plant response rating [7, 18]: 0
Plant response rating, Redroot pigweed ([7]; Preemergence, Rate 62 g/ha): 0
Plant response rating, Redroot pigweed ([7]; Preemergence, Rate 125 g/ha): 4
Redroot pigweed plant response rating [7, 20]: 7
Redroot pigweed plant response rating [7, 21]: 0
Redroot pigweed plant response rating [7, 22]: 0
B. signalgrass plant response rating [8, 17]: 0
B. signalgrass plant response rating ([8]; Postemergence, Rate 250 g/ha, scale 0 to 10, 0 no effect, 10 complete control): 0
B. signalgrass plant response rating [8, 19]: 0
Plant response rating, B. signalgrass ([8]; Preemergence, Rate 62 g/ha): 0
Plant response rating, B. signalgrass ([8]; Preemergence, Rate 125 g/ha): 1
B. signalgrass plant response rating [8, 20]: 3
B. signalgrass plant response rating [8, 21]: 0
B. signalgrass plant response rating [8, 22]: 0
Cocklebur plant response rating [9, 17]: 0
Cocklebur plant response rating [9, 18]: 0
Cocklebur plant response rating [9, 19]: 0
Plant response rating, Cocklebur ([9]; Preemergence, Rate 62 g/ha): 0
Plant response rating, Cocklebur ([9]; Preemergence, Rate 125 g/ha): 0
Cocklebur plant response rating [9, 20]: 0
Cocklebur plant response rating [9, 21]: 0
Cocklebur plant response rating [9, 22]: 0
Barnyardgrass plant response rating [10, 23]: 0
Plant response rating, Barnyardgrass (0 to 10 scale, 0 is no effect, 10 is complete control) [10, 24]: 0
Barnyardgrass plant response rating (0 to 10 scale, 0 is no effect, 10 is complete control) [10, 25]: 0
Barnyardgrass plant response rating [10, 26]: 0
Bedstraw plant response rating [11]: 0
Rape plant response rating [12, 17]: 0
Rape plant response rating [12, 18]: 0
Plant response rating, Rape ([12]; Preemergence, Rate 62 g/ha): 0
Plant response rating, Rape ([12]; Preemergence, Rate 125 g/ha): 0
Rape plant response rating [12, 20]: 0
Rape plant response rating [12, 21]: 0
Rape plant response rating [12, 22]: 0
Blackgrass plant response rating [13, 17]: 0
Blackgrass plant response rating [13, 18]: 2
Blackgrass plant response rating [13, 19]: 0
Plant response rating, Blackgrass ([13]; Preemergence, Rate 62 g/ha): 0
Plant response rating, Blackgrass ([13]; Preemergence, Rate 125 g/ha): 2
Blackgrass plant response rating [13, 20]: 4
Blackgrass plant response rating [13, 21]: 0
Blackgrass plant response rating [13, 22]: 0
Sugarbeets plant response rating [14, 17]: 0
Sugarbeets plant response rating [14, 18]: 0
Plant response rating, Sugarbeets ([14]; Preemergence, Rate 62 g/ha): 0
Plant response rating, Sugarbeets ([14]; Preemergence, Rate 125 g/ha): 0
Sugarbeets plant response rating [14, 20]: 0
Sugarbeets plant response rating [14, 21]: 0
Sugarbeets plant response rating [14, 22]: 0
Velvetleaf plant response rating [15, 17]: 0
Velvetleaf plant response rating [15, 18]: 2
Plant response rating, Velvetleaf ([15]; Preemergence, Rate 62 g/ha): 0
Plant response rating, Velvetleaf ([15]; Preemergence, Rate 125 g/ha): 0
Velvetleaf plant response rating [15, 20]: 0
Velvetleaf plant response rating [15, 21]: 0
Velvetleaf plant response rating [15, 22]: Velvetleaf 0
Wild oats plant response rating [16, 17]: 0
Wild oats plant response rating [16, 18]: 0
Plant response rating, Wild oats ([16]; Preemergence, Rate 62 g/ha): 0
Plant response rating, Wild oats ([16]; Preemergence, Rate 125 g/ha): 0
Wild oats plant response rating [16, 20]: 0
Wild oats plant response rating [16, 21]: 0
Wild oats plant response rating [16, 22]: 0
